From ChEMBL document CHEMBL1124966, “Cholecystokinin-A receptor ligands based on the kappa-opioid agonist tifluadom” (J Med Chem, 1990)

molecular target: Opioid receptor (Rattus norvegicus, UniProt P33533+P34975+P33535); experiment: Displacement of [3H]dihydromorphine (DHM) from rat brain Opioid receptors

Compound | IC50 [µM]
CN1c2ccccc2C(c2ccccc2F)=NCC1CNC(=O)c1cccnc1 (centres undefined) | 0.45
CN1c2ccccc2C(c2ccccc2F)=NCC1CNC(=O)Cc1cccc2sccc12 (centres undefined) | 0.003
CN1c2ccccc2C(c2ccccc2F)=NCC1CNC(=O)c1cc2ccccc2[nH]1 (centres undefined) | 0.0003
CN1c2ccccc2C(c2ccccc2F)NCC1CNC(=O)c1ccsc1 (centres undefined) | 0.03
O=C(NCC1N=C(c2ccccc2F)c2ccccc2NC1=O)OCc1ccccc1 (centres undefined) | 12
CC(=O)NCSCC(=O)NCC1CN=C(c2ccccc2F)c2ccccc2N1C (centres undefined) | 0.12
CN1c2ccccc2C(c2ccccc2F)=NCC1CNC(=O)Cc1c[nH]c2ccccc12 (centres undefined) | 0.022
COC(=O)CC(NCC1CN=C(c2ccccc2F)c2ccccc2N1C)c1ccccc1 (centres undefined) | 0.018
CN1c2ccccc2C(c2ccccc2F)=NCC1CNC(=O)C(O)c1ccccc1 (centres undefined) | 0.007
CN1c2ccccc2C(c2ccccc2F)=NCC1CNC(=O)C(N)Cc1c[nH]c2ccccc12 (centres undefined) | 0.04
CN1c2ccccc2C(c2ccccc2F)=NCC1CNC(=O)c1ccc(Cl)cc1 (centres undefined) | 0.0005

molecular target: T1, Cholecystokinin receptor type A (Rattus norvegicus, UniProt P30551); experiment: Inhibition of binding of [125I]CCK-8 to Cholecystokinin type A receptor in rat pancreas
T1 sequence (P30551 whole entry): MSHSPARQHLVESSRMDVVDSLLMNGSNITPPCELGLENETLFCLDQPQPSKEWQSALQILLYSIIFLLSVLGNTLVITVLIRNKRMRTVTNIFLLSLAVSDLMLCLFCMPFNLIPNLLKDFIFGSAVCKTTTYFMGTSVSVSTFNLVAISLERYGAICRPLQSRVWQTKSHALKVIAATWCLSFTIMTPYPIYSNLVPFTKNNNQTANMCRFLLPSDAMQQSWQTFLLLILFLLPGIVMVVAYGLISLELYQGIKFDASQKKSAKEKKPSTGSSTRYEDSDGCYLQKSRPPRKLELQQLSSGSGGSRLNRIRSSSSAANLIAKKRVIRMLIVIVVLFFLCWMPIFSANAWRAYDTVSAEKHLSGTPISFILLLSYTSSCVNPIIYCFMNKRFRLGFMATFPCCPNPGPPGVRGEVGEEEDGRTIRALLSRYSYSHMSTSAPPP

Compound | IC50 [µM]
O=C(NCC1CNc2ccccc2C(c2ccccc2F)=N1)C(O)c1ccccc1 (single isomer, unassigned; form 2) | > 100
O=C(NCC1N=C(c2ccccc2F)c2ccccc2NC1=O)c1ccsc1 (centres undefined) | 22
O=C(NCC1CNc2ccccc2C(c2ccccc2F)=N1)OCc1ccccc1 (centres undefined) | 28
O=C(NCC1N=C(c2ccccc2F)c2ccccc2NC1=O)OCc1ccccc1 (centres undefined) | 22
CN1c2ccccc2C(c2ccccc2F)=NCC1CNC(=O)c1ccsc1 (racemic) [TIFLUADOM] | 0.047
O=C(NCC1CNc2ccccc2C(c2ccccc2F)=N1)C(O)c1ccccc1 (single isomer, unassigned; form 1) | 8
Cc1ccc(C(=O)NC[C@H]2CN=C(c3ccc(F)cc3)c3ccc(C)cc3N2C)cc1 | 0.26
CCN(CC)CNCC1CN=C(c2ccccc2F)c2ccccc2N1C (centres undefined) | > 100
COC(=O)CC(NCC1CN=C(c2ccccc2F)c2ccccc2N1C)c1ccccc1 (centres undefined) | 0.018
NCC1N=C(c2ccccc2F)c2ccccc2NC1=O (centres undefined) | > 100
CCN(CC)c1ccc(NCC2CN=C(c3ccccc3F)c3ccccc3N2C)cc1C(F)(F)F (centres undefined) | 100
O=C1Nc2ccccc2C(c2ccccc2F)=NC1CNc1cnc(Cl)cn1 (centres undefined) | 15
O=C(NCC1N=C(c2ccccc2F)c2ccccc2NC1=O)c1cc2ccccc2[nH]1 (centres undefined) | 7
O=C(NCC1CNc2ccccc2C(c2ccccc2F)=N1)c1cc2ccccc2[nH]1 (centres undefined) | 4
CN1c2ccccc2C(c2ccccc2F)=NCC1CNC(=O)C(O)c1ccccc1 (centres undefined) | 0.6
Cc1ccc(C(=O)NC[C@@H]2CN=C(c3ccc(F)cc3)c3ccc(C)cc3N2C)cc1 | 0.029
O=C(NCC1CNc2ccccc2C(c2ccccc2F)=N1)c1ccsc1 (centres undefined) | 10
O=C1Nc2ccccc2C(c2ccccc2F)=NC1CNCC1N=C(c2ccccc2F)c2ccccc2NC1=O (centres undefined) | 14
